Measured values: PubChem BioAssay AID179 (DTP/NCI, 2004)
Activity calls are given as the source filed them.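 Rule for the calls: active = compounds giving half or more protection of infected cells from virus-caused growth loss, again on retest; inactive = the rest.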

Test system: CEM cells HIV-1 protection, formazan growth assay
Assay: NCI AIDS Antiviral Assay
Conditions: for IC50: measured here: growth of uninfected CEM cells
Method in brief: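 Human CEM cells, uninfected and HIV-1-infected, exposed to five drug concentrations; growth measured by soluble formazan assay and scored as percent protection from infection, with protecting compounds retested.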

## COC(=O)C(=O)C(C(=O)C(=O)Nc1ccccc1C(N)=O)c1nc2ccc(C(=O)c3ccccc3)cc2[nH]c1=O (centres undefined)
  EC50: > 240 µM
  IC50: 63.1 µM

## CCOC(=O)c1ccc(C(=O)/C(C#N)=C2\CCCN2)[nH]1
  EC50: > 200 µM
  IC50: 89.1 µM

## C/C(CC(=O)Nc1cccc([N+](=O)[O-])c1)=N/NC(N)=S
  EC50: > 447 µM
  IC50: > 447 µM

## CCOC(=O)C(C(O)c1ccc([N+](=O)[O-])cc1)P(=O)(OCC)OCC (centres undefined)
  EC50: > 661 µM
  IC50: 93.3 µM

## CC(C)(C)OC(=O)NCCCCCCC(=O)Cc1ccccc1
  EC50: > 200 µM
  IC50: 117 µM

## O=C(/C=C\c1ccc(Cl)c(Cl)c1)c1ccc(Cl)cc1Cl
  EC50: > 14.5 µM
  IC50: > 14.5 µM

## COc1ccc(Cl)[c]([Bi]([c]2cc(OC)ccc2Cl)[c]2cc(OC)ccc2Cl)c1
  EC50: > 39.8 µM
  IC50: > 39.8 µM

## Cc1sc2nc3n(c(=O)c2c1C)N=C(c1ccccc1)CS3
  EC50: > 200 µM
  IC50: > 200 µM

## NC(=O)C(=CNC(=S)Nc1ccc(S(N)(=O)=O)cc1)C(N)=O
  EC50: > 200 µM
  IC50: > 200 µM

## O=C(/C=C/c1ccsc1)c1cccs1
  EC50: > 200 µM
  IC50: 3.55 µM

## O=C(O)c1ccc2c3c(n[se]c13)-c1ccccc1C2=O
  EC50: > 8.32 µM
  IC50: > 8.32 µM

## C[Si](C)(C)C#CC#C[Si](C)(C)C.[Ni].[Ni].[Ni].[Ni].[c-]1[c-][c-][cH-][c-]1.[c-]1[c-][c-][cH-][c-]1.[c-]1[c-][c-][cH-][c-]1.[c-]1[c-][c-][cH-][c-]1
  EC50: > 2.09 µM
  IC50: > 2.09 µM

## O=C1C2C3CCC(O3)C2C(=O)N1N1C(=O)C2C3CCC(O3)C2C1=O (centres undefined)
  EC50: > 200 µM
  IC50: 43.7 µM

## CCCC(C)(O)CCC(O)(CCC)CCC (centres undefined)
  EC50: > 200 µM
  IC50: > 200 µM

## COc1ccc(/C=C/C(=O)Oc2ccccc2OC)cc1
  EC50: > 200 µM
  IC50: 0.398 µM

## Cc1ccc(NC(=O)NC(=O)CCl)cc1
  EC50: > 31.6 µM
  IC50: 7.76 µM

## O=C1NC2(CCNCC2)Oc2ccccc21
  EC50: > 200 µM
  IC50: > 200 µM

## O=C(CN1CCN(c2cccc(Cl)c2)CC1)N1CCc2c([nH]c3ccccc23)C1c1cccnc1 (centres undefined)
  EC50: > 2.14 µM
  IC50: > 2.14 µM

## CCCCCCCCN(/N=C/c1c2c(O)c3c(O)c(C)c4c(c3c1O)C(=O)C(C)(O/C=C\C(OC)C(C)C(OC(C)=O)C(C)C(O)C(C)C(O)C(C)/C=C/C=C(C)C(=O)N2)O4)C12CC3CC(CC(C3)C1)C2 (centres undefined)
  EC50: > 200 µM
  IC50: 8.91 µM

## O=[N+]([O-])c1ccc(Nc2ccc(Cl)cc2)c2nonc12
  EC50: > 43.7 µM
  IC50: 15.1 µM

## CCN(CC)CC[NH-].O=C([O-])C(=O)[O-].O=C([O-])C(=O)[O-].[Co+3].[K+]
  EC50: > 200 µM
  IC50: 148 µM

## Nc1nc(Cl)cc(NC23CC4CC(CC(C4)C2)C3)n1
  EC50: > 200 µM
  IC50: > 200 µM

## CC(=O)ON(C)C1CC(=O)OC1CO[Si](C)(C)C(C)(C)C (centres undefined)
  EC50: > 200 µM
  IC50: 93.3 µM

## C=C(C)CN1C(=O)C(C)S/C1=N/N=C1/SCC(=O)N1C (centres undefined)
  EC50: > 42.7 µM
  IC50: > 42.7 µM

## CCOC(=O)/C(=C/c1ccc(F)cc1)C(=O)c1ccccc1
  EC50: > 17.4 µM
  IC50: > 17.4 µM

## CCOC(=O)CCC(NC(=O)c1ccc(Nc2nc3ccccc3nc2C(=O)OCC)cc1)C(=O)OCC (centres undefined)
  EC50: > 138 µM
  IC50: 85.1 µM

## CCC1OC(=O)[C@H](C)C(OC2CC(C)(OC)C(O)C(C)O2)C(C)C(OC2OC(C)CC(N(C)C)C2O)[C@](C)(O)CC(C)CN(C)[C@H](C)[C@@H](O)[C@]1(C)O (some centres undefined)
  EC50: > 200 µM
  IC50: 132 µM

## Cc1ccc2c(c1)[nH]c1cc(C(F)(F)F)ccc1[p+]2=O (centres undefined)
  EC50: > 200 µM
  IC50: 26.3 µM

## CC1C2CC(CC2N)C1(C)C (centres undefined)
  EC50: > 162 µM
  IC50: > 162 µM

## Nc1ccc(S(=O)(=O)Cc2ccc(C(=O)O)cc2[N+](=O)[O-])cc1
  EC50: > 107 µM
  IC50: > 107 µM

## COc1ccc(N(c2ccc(C#N)cc2)c2ccc(C#N)cc2)cc1
  EC50: > 45.7 µM
  IC50: 33.1 µM

## CCO/N=C\c1c2c(O)c3c(O)c(C)c4c(c3c1O)C(=O)C(C)(O/C=C\C(OC)C(C)C(OC(C)=O)C(C)C(O)C(C)C(O)C(C)/C=C\C=C(\C)C(=O)N2)O4 (centres undefined)
  EC50: > 151 µM
  IC50: 8.13 µM

## O=C/C(=C(/Cl)c1ccc(O)cc1)c1ccccc1
  EC50: > 115 µM
  IC50: 49 µM

## O=C1C=CC(=O)c2nc3c(cc21)CCC3
  EC50: > 91.2 µM
  IC50: 10.5 µM

## N#C/C(=C\NC(=S)c1ccncc1)c1nc2ccccc2s1
  EC50: > 200 µM
  IC50: 145 µM

## CC1=CCC2CC1NC(=O)CCOCCC(=O)NC2(C)C (centres undefined)
  EC50: > 100 µM
  IC50: > 100 µM

## CC1(Br)C2c3ccccc3C(c3ccccc32)C1(C)C(Cl)(Cl)Cl (centres undefined)
  EC50: > 16.6 µM
  IC50: > 16.6 µM

## Cc1ccc(S(=O)(=O)NC2C(=O)c3ccccc3C(=O)C2n2cnc3ccccc32)cc1 (centres undefined)
  EC50: > 200 µM
  IC50: 42.7 µM

## O=c1c(SCc2ccc(Cl)cc2)c(N2CCCCC2)cnn1-c1ccccc1
  EC50: > 24 µM
  IC50: > 24 µM

## Nc1nc(Cl)cc(NCC2(O)CCC2)n1
  EC50: > 200 µM
  IC50: > 200 µM

## O=C1CSC(c2cccc([N+](=O)[O-])c2)N1c1ccc(-c2ccc(-n3c(-c4ccccc4)nc4ccccc4c3=O)cc2)cc1 (centres undefined)
  EC50: > 200 µM
  IC50: 28.2 µM

## N#C/C=C/c1ccc(C#N)cc1
  EC50: > 64.6 µM
  IC50: > 64.6 µM

## CN(C)CCCNC(=O)CCNC(=O)c1cc(NC(=O)c2cc(NC(=O)c3cc(NC(=O)c4nccn4C)cn3C)cn2C)cn1C
  EC50: > 200 µM
  IC50: 17 µM

## O=C1CCCCC/C1=C\c1cccc(Cl)c1
  EC50: > 200 µM
  IC50: 28.8 µM

## O=c1[nH]nc(Cn2c3ccc(Br)cc3c3nc4ccccc4nc32)n1C1CCCCC1
  EC50: > 200 µM
  IC50: 174 µM

## Cc1ccc(N2C(=O)/C(=C3\Sc4c(nc(C)[nH]c4=O)N3c3ccccc3)SC2=S)cc1
  EC50: > 4.07 µM
  IC50: > 4.07 µM

## O=C(Oc1ccccc1C(=O)O)c1ccccc1O
  EC50: > 200 µM
  IC50: > 200 µM

## c1ccc(-c2c[se]nn2)cc1
  EC50: > 174 µM
  IC50: 93.3 µM

## C[S+]1CC2C3CC(C#N)C(C3)C2C1 (centres undefined)
  EC50: > 275 µM
  IC50: > 275 µM

## O=C(Nc1cccc(C(F)(F)F)c1)c1cc(-c2ccccc2)nc(=S)[nH]1
  EC50: > 661 µM
  IC50: > 661 µM

## O=C1NC(SSC2=NNC3(C(=O)N2)c2ccccc2-c2ccccc23)=NNC12c1ccccc1-c1ccccc12
  outcome: inactive

## O=C1/C(=C/c2ccc(Cl)cc2)COc2ccc(Br)cc21
  EC50: > 14.8 µM
  IC50: > 14.8 µM

## CN(C(=O)C12C3C4C1C1C2C3C41C#N)C(C)(C)C (centres undefined)
  EC50: > 41.7 µM
  IC50: > 41.7 µM

## CN(C)CCNC(=O)Cc1ccccc1Nc1c(Cl)cccc1Cl
  EC50: > 200 µM
  IC50: 30.2 µM

## CSc1nc(N)c2c(n1)NCNS2(=O)=O
  EC50: > 1000 µM
  IC50: > 1000 µM

## c1c[nH]c(Cc2ncc(Cc3cnc[nH]3)[nH]2)n1
  outcome: inactive

## CCN(CC)CCN(C(=Nc1ccccc1)N1CCOCC1)c1ccccc1
  EC50: > 200 µM
  IC50: 41.7 µM

## COc1ccc(Br)cc1-c1cc(Br)ccc1OC
  EC50: > 200 µM
  IC50: 12.6 µM

## CCOP(=O)(OCC)/C(C#N)=C/c1ccnc2ccccc12
  EC50: > 200 µM
  IC50: 11.2 µM

## CC(=O)Nc1cc(S(=O)(=O)O)cc2c(N=Nc3ccc(C(=O)Nc4ccc(N=Nc5ccc(S(=O)(=O)O)cc5)cc4)cc3)c(S(=O)(=O)O)cc(O)c12
  outcome: inactive

## C[C@]12CCC3[C@@H](CC[C@@H]4c5nonc5CC[C@]34C)C1CC[C@@H]2O (some centres undefined)
  EC50: > 214 µM
  IC50: > 214 µM
